Measured values as given in patent US9580449B2, “Compositions and methods for the production of pyrimidine and pyridine compounds with BTK inhibitory activity” (Merck Patent GmbH, priority 2011, dated 2017).

Target: full-length human BTK (Homo sapiens (Human), UniProt Q06187)
Assay: BTK IC50 enzyme assay (microfluidic off-chip mobility shift kinase assay)
Format: biochemical
Conditions: incubated for 90 min. at 27 C; read-out: Time Dependent BTK Enzyme Assay IC50
Procedure, shortened: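 Read-out separates phosphorylated peptide product from substrate by charge/mass in a mobility shift format with full-length human BTK.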

full-length human BTK, sequence (Q06187 whole entry): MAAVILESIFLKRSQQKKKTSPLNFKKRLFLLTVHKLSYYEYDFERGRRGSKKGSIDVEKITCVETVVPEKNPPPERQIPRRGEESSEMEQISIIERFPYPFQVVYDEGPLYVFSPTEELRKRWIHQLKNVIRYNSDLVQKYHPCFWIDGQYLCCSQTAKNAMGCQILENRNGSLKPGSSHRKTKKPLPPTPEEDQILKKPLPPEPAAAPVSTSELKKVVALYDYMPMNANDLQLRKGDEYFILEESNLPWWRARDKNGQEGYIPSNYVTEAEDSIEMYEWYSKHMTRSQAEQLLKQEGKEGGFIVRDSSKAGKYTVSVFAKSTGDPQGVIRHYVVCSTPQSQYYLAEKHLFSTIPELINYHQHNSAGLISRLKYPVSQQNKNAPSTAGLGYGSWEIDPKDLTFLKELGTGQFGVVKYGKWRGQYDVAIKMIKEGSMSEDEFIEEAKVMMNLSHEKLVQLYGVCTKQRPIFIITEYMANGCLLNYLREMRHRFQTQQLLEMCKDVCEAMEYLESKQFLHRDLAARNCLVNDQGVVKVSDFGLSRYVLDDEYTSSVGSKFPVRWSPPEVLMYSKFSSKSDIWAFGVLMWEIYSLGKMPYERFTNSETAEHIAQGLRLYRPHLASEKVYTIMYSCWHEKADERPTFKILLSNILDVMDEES

Row | IC50 | Structure (SMILES)
1 | > 1000 nM | C/C=C/C(=O)Nc1cccc(-c2cnccc2Oc2ccc(Oc3ccccc3)cc2)c1 [A307, (E)-N-(3-(4-(4-phenoxyphenoxy)pyridin-3-yl)phenyl)but-2-enamide]
2 | < 1000 nM | C=CC(=O)N1CC[C@@H](COc2ncnc(N)c2-c2cnn(Cc3ccccc3)c2)C1 [A196, (R)-1-(3-(((6-amino-5-(1-benzyl-1H-pyrazol-4-yl)pyrimidin-4-yl)oxy)methyl)pyrrolidin-1-yl)prop-2-en-1-one]
3 | < 1000 nM | C=CC(=O)N1CC=C(c2c(N)ncnc2Oc2ccc(Oc3ccccc3)cc2)CC1 [A263, 1-(4-(4-amino-6-(4-phenoxyphenoxy)pyrimidin-5-yl)-5,6-dihydropyridin-1(2H)-yl)prop-2-en-1-one]
4 | < 100 nM | CC#CC(=O)Nc1cccc(Oc2ccnc(N)c2-c2ccc(Oc3ccccc3)cc2)c1 [A340, N-(3-((2-amino-3-(4-phenoxyphenyl)pyridin-4-yl)oxy)phenyl)but-2-ynamide]
5 | > 1000 nM | C=CC(=O)N1CCC(CNc2ncnc(N)c2-c2cnn(Cc3ccccc3)c2)CC1 [A33, 1-(4-(((6-amino-5-(1-benzyl-1H-pyrazol-4-yl)pyrimidin-4-yl)amino)methyl)piperidin-1-yl)prop-2-en-1-one]
6 | < 1000 nM | C=CC(=O)N1CCC(CNc2ncnc(N)c2-c2cc(F)c(Oc3ccccc3)cc2F)CC1 [A87, 1-(4-(((6-amino-5-(2,5-difluoro-4-phenoxyphenyl)pyrimidin-4-yl)amino)methyl)piperidin-1-yl)prop-2-en-1-one]
7 | < 100 nM | C=CC(=O)Nc1cccc(-c2cnccc2Nc2ccc(Oc3ccccc3)cc2)c1 [A267, N-(3-(4-((4-phenoxyphenyl)amino)pyridin-3-yl)phenyl)acrylamide]
8 | < 1000 nM | C/C=C\C(=O)N1CCC(COc2ncnc(N)c2-c2ccc(Oc3ccccc3)cc2)CC1 [A43, (Z)-1-(4-(((6-amino-5-(4-phenoxyphenyl)pyrimidin-4-yl)oxy)methyl)piperidin-1-yl)but-2-en-1-one]
9 | > 1000 nM | CC#CC(=O)NCc1cccc(-c2cnccc2Oc2ccc(Oc3ccccc3)cc2)c1 [A304, N-(3-(4-(4-phenoxyphenoxy)pyridin-3-yl)benzyl)but-2-ynamide]
10 | < 1000 nM | C=CC(=O)NCCNc1ncnc(N)c1-c1ccc(Oc2ccccc2)cc1 [A18, N-(2-((6-amino-5-(4-phenoxyphenyl)pyrimidin-4-yl)amino)ethyl)acrylamide]
11 | < 1000 nM | CC#CC(=O)Nc1cccc(-c2cnccc2Oc2ccc(Oc3ccccc3)cc2)c1 [A296, N-(3-(4-(4-phenoxyphenoxy)pyridin-3-yl)phenyl)but-2-ynamide]
12 | < 100 nM | C=CC(=O)Nc1cccc(Oc2ncnc(N)c2-c2ccc(OCc3ccccc3)cc2F)c1 [A349, N-{3-[6-Amino-5-(4-benzyloxy-2-fluoro-phenyl)-pyrimidin-4-yloxy]-phenyl}-acrylamide]
13 | > 1000 nM | CCC(=O)Nc1cccc(-c2cnccc2Oc2ccc(Oc3ccccc3)cc2)c1 [A319, N-(3-(4-(4-phenoxyphenoxy)pyridin-3-yl)phenyl)propionamide]
14 | < 100 nM | C=CC(=O)Nc1cccc(Oc2ncnc(N)c2-c2ccc(OCc3ccccc3OC)cc2)c1 [A254, N-(3-((6-amino-5-(4-((2-methoxybenzyl)oxy)phenyl)pyrimidin-4-yl)oxy)phenyl)acrylamide]
15 | > 1000 nM | C=CC(=O)N1CCC(CNc2ncnc(N)c2-c2ccc(OC)cc2)CC1 [A85, 1-(4-(((6-amino-5-(4-methoxyphenyl)pyrimidin-4-yl)amino)methyl)piperidin-1-yl)prop-2-en-1-one]
16 | > 1000 nM | Nc1ncnc(NCC2(F)CCN(C(=O)CCN3CCCCC3)CC2)c1-c1ccc(Oc2ccccc2)cc1 [A235, 1-(4-(((6-amino-5-(4-phenoxyphenyl)pyrimidin-4-yl)amino)methyl)-4-fluoropiperidin-1-yl)-3-(piperidin-1-yl)propan-1-one]
17 | < 100 nM | C=CC(=O)Nc1cccc(Oc2ncnc(N)c2-c2ccc(OCc3ccc(OC)cc3)cc2)c1 [A264, N-(3-((6-amino-5-(4-((4-methoxybenzyl)oxy)phenyl)pyrimidin-4-yl)oxy)phenyl)acrylamide]
18 | < 100 nM | C=CC(=O)Nc1cccc(Oc2ncnc(N)c2-c2ccc(OCc3ccccc3)c(OC)c2)c1 [A256, N-(3-((6-amino-5-(4-(benzyloxy)-3-methoxyphenyl)pyrimidin-4-yl)oxy)phenyl)acrylamide]
19 | < 1000 nM | CC#CC(=O)c1cccc(CNc2ncnc(N)c2-c2ccc(Oc3ccccc3)cc2)c1 [A141, 1-(3-((6-Amino-5-(4-phenoxyphenyl)-pyrimidin-4-ylamino)-methyl)-phenyl)-but-2-yn-1-one]
20 | < 100 nM | C=CC(=O)Nc1cccc(Oc2ncnc(N)c2-c2ccc(NC(=O)c3ccccc3)cc2)c1 [A352, N-{4-[4-(3-Acryloylamino-phenoxy)-6-amino-pyrimidin-5-yl]-phenyl}-benzamide]
21 | < 1000 nM | CN(C)C/C=C/C(=O)N1CCC[C@@H](Nc2ncnc(N)c2-c2ccc(Oc3ccccc3)cc2)C1 [A74, (R,E)-1-(3-((6-amino-5-(4-phenoxyphenyl)pyrimidin-4-yl)amino)piperidin-1-yl)-4-(dimethylamino)but-2-en-1-one]
22 | < 100 nM | C=CS(=O)(=O)Nc1cccc(Oc2ncnc(N)c2-c2ccc(Oc3ccccc3)cc2)c1 [A58, N-(3-((6-amino-5-(4-phenoxyphenyl)pyrimidin-4-yl)oxy)phenyl)ethenesulfonamide]
23 | > 1000 nM | C=CC(=O)N1CCC(CCNc2ncnc(N)c2-c2ccc(Oc3ccccc3)cc2)CC1 [A16, 1-(4-(2-((6-amino-5-(4-phenoxyphenyl)pyrimidin-4-yl)amino)ethyl)piperidin-1-yl)prop-2-en-1-one]
24 | < 100 nM | C=CC(=O)Nc1cccc(Oc2ncnc(N)c2-c2ccc(F)c(OC)c2)c1 [A277, N-(3-((6-amino-5-(4-fluoro-3-methoxyphenyl)pyrimidin-4-yl)oxy)phenyl)acrylamide]
25 | < 100 nM | C=CC(=O)Nc1cccc(Oc2ncnc(N)c2-c2cnn(Cc3cccc(C(F)(F)F)c3)c2)c1 [A195, N-(3-((6-amino-5-(1-(3-(trifluoromethyl)benzyl)-1H-pyrazol-4-yl)pyrimidin-4-yl)oxy)phenyl)acrylamide]
26 | < 1000 nM | C=CC(=O)N1CCO[C@@H](COc2ncnc(N)c2-c2ccc(Oc3ccc(C#N)cc3)cc2)C1 [A200, (R)-4-(4-(4-((4-acryloylmorpholin-2-yl)methoxy)-6-aminopyrimidin-5-yl)phenoxy)benzonitrile]
27 | < 100 nM | C=CC(=O)N1CCC(CNc2ncncc2-c2ccc(Oc3ccccc3)cc2)CC1 [A334, 1-(4-(((5-(4-phenoxyphenyl)pyrimidin-4-yl)amino)methyl)piperidin-1-yl)prop-2-en-1-one]
28 | < 1000 nM | Nc1cccc(-c2c(Oc3ccc(Oc4ccccc4)cc3)ccnc2N)c1 [A300, 3-(3-aminophenyl)-4-(4-phenoxyphenoxy)pyridin-2-amine]
29 | < 100 nM | C=CC(=O)Nc1cccc(Oc2ncnc(N)c2-c2cnc(OCc3ccccc3)nc2)c1 [A261, N-(3-((6-amino-2′-(benzyloxy)-[5,5′-bipyrimidin]-4-yl)oxy)phenyl)acrylamide]
30 | > 1000 nM | C=CC(=O)N1CCC(CNc2ncnc(N)c2-c2ccc(C(F)(F)F)cc2)CC1 [A81, 1-(4-(((6-amino-5-(4-(trifluoromethyl)phenyl)pyrimidin-4-yl)amino)methyl)piperidin-1-yl)prop-2-en-1-one]
